From ChEMBL document CHEMBL1133356, “Examination of novel non-phosphorus-containing phosphotyrosyl mimetics against protein-tyrosine phosphatase-1B and demonstration of differential affinities toward Grb2 SH2 domains” (Bioorg Med Chem Lett, 2000) come the findings set out here.

Peptide text beside a SMILES is read from it. * marks the point of attachment. Carboxymethyl = O=C(O)C* Some results are limits rather than exact numbers.

The target of one assay is T1, Growth factor receptor-bound protein 2 (Homo sapiens, UniProt P62993). Nature of the assay: Inhibition of Growth factor receptor bound protein 2 SH2 domain binding in plasmon resonance assay.
T1 sequence (P62993 whole entry, the tested form may be a part): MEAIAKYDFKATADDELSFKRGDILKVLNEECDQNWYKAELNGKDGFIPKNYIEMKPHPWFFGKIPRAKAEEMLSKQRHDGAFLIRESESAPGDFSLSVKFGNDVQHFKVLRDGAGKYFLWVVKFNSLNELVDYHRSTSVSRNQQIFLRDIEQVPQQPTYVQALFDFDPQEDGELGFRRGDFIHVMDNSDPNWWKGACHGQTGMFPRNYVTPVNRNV
`NC(=O)C[C@H](NC(=O)C1(NC(=O)[C@H](Cc2ccc(OCC(=O)O)c(OCC(=O)O)c2)NC(=O)C(=O)O)CCCCC1)C(=O)NCCCc1cccc2ccccc12` showed an IC50 of more than 100 µM.
The same measure, in the same setting: the same measure for `NC(=O)C[C@H](NC(=O)C1(NC(=O)[C@H](Cc2ccc(C(F)(F)C(=O)O)cc2)NC(=O)C(=O)O)CCCCC1)C(=O)NCCCc1cccc2ccccc12`: 2 µM; for `NC(=O)C[C@H](NC(=O)C1(NC(=O)[C@H](Cc2ccc(OCC(=O)O)cc2)NC(=O)C(=O)O)CCCCC1)C(=O)NCCCc1cccc2ccccc12`: 15 µM; for `NC(=O)C[C@H](NC(=O)C1(NC(=O)[C@H](Cc2ccc(CC(=O)O)cc2)NC(=O)C(=O)O)CCCCC1)C(=O)NCCCc1cccc2ccccc12`: 0.6 µM.

In another assay the target is T1, Growth factor receptor-bound protein 2. The assay is described as follows: Inhibition of Growth factor receptor bound protein 2 SH2 domain binding in ELISA.
Regarding `NC(=O)C[C@H](NC(=O)C1(NC(=O)[C@H](Cc2ccc(C(=O)O)c(O)c2)NC(=O)C(=O)O)CCCCC1)C(=O)NCCCc1cccc2ccccc12`, the IC50 turned out to be 50 µM.
Same read-out and setting: the same measure for `NC(=O)C[C@H](NC(=O)C1(NC(=O)[C@H](Cc2ccc(O)c(C(=O)O)c2)NC(=O)C(=O)O)CCCCC1)C(=O)NCCCc1cccc2ccccc12`: more than 100 µM.

Another assay deals with T2, Tyrosine-protein phosphatase non-receptor type 1 (Homo sapiens, UniProt P18031).
T2 sequence (P18031 whole entry): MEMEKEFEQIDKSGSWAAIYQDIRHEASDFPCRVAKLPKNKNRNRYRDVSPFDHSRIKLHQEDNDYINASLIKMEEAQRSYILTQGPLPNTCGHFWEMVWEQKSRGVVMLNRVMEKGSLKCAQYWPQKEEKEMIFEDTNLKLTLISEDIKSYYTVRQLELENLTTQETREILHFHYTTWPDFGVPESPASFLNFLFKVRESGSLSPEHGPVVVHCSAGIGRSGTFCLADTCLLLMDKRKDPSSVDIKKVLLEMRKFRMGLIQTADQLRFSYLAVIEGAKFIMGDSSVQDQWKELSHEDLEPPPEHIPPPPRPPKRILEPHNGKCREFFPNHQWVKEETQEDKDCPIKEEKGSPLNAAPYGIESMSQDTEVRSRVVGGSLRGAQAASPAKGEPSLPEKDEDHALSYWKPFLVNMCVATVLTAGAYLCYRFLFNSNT
The assay is described as follows: Tested for binding affinity towards Protein-tyrosine Phosphatase 1B. Further details: species or system Rattus norvegicus.
With `CC(=O)N[C@@H](CC(=O)O)C(=O)N[C@@H](C)C(=O)N[C@@H](CC(=O)O)C(=O)N[C@@H](CCC(=O)O)C(=O)N[C@@H](Cc1ccc(OCC(=O)O)c(C(=O)O)c1)C(=O)N[C@@H](CC(C)C)C(N)=O` (HELM PEPTIDE1{[ac].D.A.D.E.[O=C(O)COc1ccc(C[C@H](N[*:1])C(=O)[*:2])cc1C(=O)O].L.[am]}$$$$V2.0), the IC50 is 19 µM.
Same read-out and setting: next, `CC(=O)N[C@@H](CC(=O)O)C(=O)N[C@@H](C)C(=O)N[C@@H](CC(=O)O)C(=O)N[C@@H](CCC(=O)O)C(=O)N[C@@H](Cc1ccc(OP(=O)(O)O)cc1)C(=O)N[C@@H](CC(C)C)C(N)=O` (HELM PEPTIDE1{[ac].D.A.D.E.[O=C([C@H](Cc1ccc(OP(=O)(O)O)cc1)N[*:1])[*:2]].L.[am]}$$$$V2.0): 3.2 µM; `CC(=O)N[C@@H](CC(=O)O)C(=O)N[C@@H](C)C(=O)N[C@@H](CC(=O)O)C(=O)N[C@@H](CCC(=O)O)C(=O)N[C@@H](Cc1ccc(OCC(=O)O)cc1)C(=O)N[C@@H](CC(C)C)C(N)=O` (Ac-DADEY(Carboxymethyl)L-NH2): 1200 µM; `CC(=O)N[C@@H](CC(=O)O)C(=O)N[C@@H](C)C(=O)N[C@@H](CC(=O)O)C(=O)N[C@@H](CCC(=O)O)C(=O)N[C@@H](Cc1ccc(CC(=O)O)c(O)c1)C(=O)N[C@@H](CC(C)C)C(N)=O` (HELM PEPTIDE1{[ac].D.A.D.E.[O=C(O)Cc1ccc(C[C@H](N[*:1])C(=O)[*:2])cc1O].L.[am]}$$$$V2.0): 13000 µM.
The same measure, in the same setting: the same measure for `CC(=O)N[C@@H](CC(=O)O)C(=O)N[C@@H](C)C(=O)N[C@@H](CC(=O)O)C(=O)N[C@@H](CCC(=O)O)C(=O)N[C@@H](Cc1ccc(C(F)(F)C(=O)O)cc1)C(=O)N[C@@H](CC(C)C)C(N)=O` (HELM PEPTIDE1{[ac].D.A.D.E.[O=C(O)C(F)(F)c1ccc(C[C@H](N[*:1])C(=O)[*:2])cc1].L.[am]}$$$$V2.0): 650 µM; for `CC(=O)N[C@@H](CC(=O)O)C(=O)N[C@@H](C)C(=O)N[C@@H](CC(=O)O)C(=O)N[C@@H](CCC(=O)O)C(=O)N[C@@H](Cc1ccc(C(=O)O)c(O)c1)C(=O)N[C@@H](CC(C)C)C(N)=O` (HELM PEPTIDE1{[ac].D.A.D.E.[O=C(O)c1ccc(C[C@H](N[*:1])C(=O)[*:2])cc1O].L.[am]}$$$$V2.0): 5300 µM.
Still for that read-out and setting: the same measure for `CC(=O)N[C@@H](CC(=O)O)C(=O)N[C@@H](C)C(=O)N[C@@H](CC(=O)O)C(=O)N[C@@H](CCC(=O)O)C(=O)N[C@@H](Cc1ccc(C(F)(C(=O)O)C(=O)O)cc1)C(=O)N[C@@H](CC(C)C)C(N)=O` (HELM PEPTIDE1{[ac].D.A.D.E.[O=C(O)C(F)(C(=O)O)c1ccc(C[C@H](N[*:1])C(=O)[*:2])cc1].L.[am]}$$$$V2.0): 430 µM; for `CC(=O)N[C@@H](CC(=O)O)C(=O)N[C@@H](C)C(=O)N[C@@H](CC(=O)O)C(=O)N[C@@H](CCC(=O)O)C(=O)N[C@@H](Cc1ccc(C(=O)O)cc1)C(=O)N[C@@H](CC(C)C)C(N)=O` (HELM PEPTIDE1{[ac].D.A.D.E.[O=C(O)c1ccc(C[C@H](N[*:1])C(=O)[*:2])cc1].L.[am]}$$$$V2.0): 4400 µM.
In turn, `CC(=O)N[C@@H](CC(=O)O)C(=O)N[C@@H](C)C(=O)N[C@@H](CC(=O)O)C(=O)N[C@@H](CCC(=O)O)C(=O)N[C@@H](Cc1ccc(OCC(=O)O)c(OCC(=O)O)c1)C(=O)N[C@@H](CC(C)C)C(N)=O` (HELM PEPTIDE1{[ac].D.A.D.E.[O=C(O)COc1ccc(C[C@H](N[*:1])C(=O)[*:2])cc1OCC(=O)O].L.[am]}$$$$V2.0) came in with a half-inhibitory concentration (IC50) of 800 µM.
On the same count and under the same terms, next, `CC(=O)N[C@@H](CC(=O)O)C(=O)N[C@@H](C)C(=O)N[C@@H](CC(=O)O)C(=O)N[C@@H](CCC(=O)O)C(=O)N[C@@H](Cc1ccc(CC(=O)O)c(C(=O)O)c1)C(=O)N[C@@H](CC(C)C)C(N)=O` (HELM PEPTIDE1{[ac].D.A.D.E.[O=C(O)Cc1ccc(C[C@H](N[*:1])C(=O)[*:2])cc1C(=O)O].L.[am]}$$$$V2.0): 3700 µM.
Still for that read-out and setting: the same measure for `CC(=O)N[C@@H](CC(=O)O)C(=O)N[C@@H](C)C(=O)N[C@@H](CC(=O)O)C(=O)N[C@@H](CCC(=O)O)C(=O)N[C@@H](Cc1ccc(CC(=O)O)cc1)C(=O)N[C@@H](CC(C)C)C(N)=O` (HELM PEPTIDE1{[ac].D.A.D.E.[O=C(O)Cc1ccc(C[C@H](N[*:1])C(=O)[*:2])cc1].L.[am]}$$$$V2.0): 2500 µM.
On the same count and under the same terms, next, `CC(=O)N[C@@H](CC(=O)O)C(=O)N[C@@H](C)C(=O)N[C@@H](CC(=O)O)C(=O)N[C@@H](CCC(=O)O)C(=O)N[C@@H](Cc1ccc(C(C(=O)O)C(=O)O)cc1)C(=O)N[C@@H](CC(C)C)C(N)=O` (HELM PEPTIDE1{[ac].D.A.D.E.[O=C(O)C(C(=O)O)c1ccc(C[C@H](N[*:1])C(=O)[*:2])cc1].L.[am]}$$$$V2.0): 1500 µM.
Turning to `CC(=O)N[C@@H](CC(=O)O)C(=O)N[C@@H](C)C(=O)N[C@@H](CC(=O)O)C(=O)N[C@@H](CCC(=O)O)C(=O)N[C@@H](Cc1ccc(O)c(C(=O)O)c1)C(=O)N[C@@H](CC(C)C)C(N)=O` (HELM PEPTIDE1{[ac].D.A.D.E.[O=C(O)c1cc(C[C@H](N[*:1])C(=O)[*:2])ccc1O].L.[am]}$$$$V2.0), the half-maximal inhibitory concentration (IC50) was found to be 4600 µM.
